Data taken from patent publication US20120295804A1, “Compositions and Methods for Diagnosis and Treatment of Breast Cancer” (University of Medicine and Dentistry of New Jersey, priority 2011, published 2012).

How the values were obtained:
[1] = system: Oct4^− BCCs; experiment: Chemical induction of GFP in Oct4(−) breast cancer cells stably transfected with pEGFP1-Oct3/4; assay type: cell-based; conditions: 2.7 μM BIX01294, 24 h, pEGFP1-Oct3/4 stable transfectants
Description: Therefore, different BCC subsets were selected based on Oct4 expression. To do this, MDA-MB-231 and T47D were stably transfected with an Oct4 reporter vector, pEGFP1-Oct3/4 (Gerrard, L. et al. 2005. Stem Cells 23:124-133). The transfected cells were sorted into three subsets based on GFP expression levels. The top 5% of GFP expressers were designated Oct4^hi and the lowest 5%, Oct4^−. The population between the extremes were designated Oct4^med. GFP intensities were validated for correlation with Oct4 protein by intracellular flow cytometry of pEGFP1-Oct3/4 transfectants. The Oct4^− population was similar to isotype control. In contrast, the mean fluorescence intensity (MFI) of cells labeled with APC-anti-Oct4 correlated with GFP intensities.
At 40-50% confluence stably transfected BCCs were treated with G9a histone methyltransferase inhibitor, [2-(Hexahydro-4-methyl-1H-1,4-diazepin-1-yl)-6,7-dimethoxy-N-[1-(phenylmethyl)-4-piperidinyl]4-quinazolinamine] (BIX01294, Enzo Life Sciences, Farmingdale, N.Y.). BIX01294 and similar chemicals can induce Oct4 in negative cells, in reprogramming (Huangfu, D. et al. 2008. Nat. Biotech. 26:795-797; Shi, Y. et al. 2008. Cell Stem Cell 3:568-574). Cells were treated with 2.7 μM BIX01294. After 24 h, images were taken by fluorescence microscopy. Control cells were untreated or treated with vehicle (dimethyl sulphoxide, DMSO).

[2] = system: GJIC between Oct4^hi BCCs and BM stroma; experiment: GJIC in co-cultures of Oct4^hi BCCs and bone marrow stroma with or without 1-octanol; assay type: cell-based; conditions: 300 μM 1-octanol
Description: Connexin (Cx) expression was studied using plasma membrane extracts from unsorted, Oct4^hi, Oct4^med and Oct4^− BCCs. […] It was next determined if the higher expression of connexins in BCCs could provide the cells with an advantage to form GJIC, in co-cultures of Oct4^hi BCCs and BM stroma. […] As expected, in the presence of the GJIC inhibitor 1-octanol, the intensity of Cx43 was reduced. GJIC was studied via dye transfer between BCCs and stroma using CFDA-SE-labeled Oct4^hi BCCs, as described previously (Lim, P. K. et al. 2011. Cancer Res. 71:1550-1560). Dye transfer into stroma was blunted by 1-octanol. Finally, the total number of BCCs showing dye transfer was counted in order to quantify functional GJIC.
GJIC was assessed by CFDA-SE dye exchange from BCCs to stroma in co-cultures, as described previously (Ramkisson, S. H. et al. 2007. Cancer Res. 67:1653-1659). Briefly, BCCs and stroma were co-cultured at equal ratios in α-MEM with 10% FCS, in the presence or absence of 300 μM 1-octanol. CFDA-SE dye transfer was assessed on an EVOS fl fluorescence imager (AMG Micro, Bothell, Wash.).

[3] = system: Oct4^hi BCCs (MDA-MB-231 and T47D); experiment: Hoechst 33342 dye exclusion (side population) in the presence or absence of verapamil; assay type: cell-based; conditions: 400 μM verapamil, 5 μg/mL Hoechst 33342, Oct4^hi population
Protocol: FIG. 7 depicts results of experiments of dye retention in BCC subsets. Oct4^hi BCCs were labeled with Hoechst 33342 (5 μg/mL), in the presence or absence of 400 μM verapamil. Propidium iodide-negative cells were gated based on GFP intensity. The cells were analyzed on Hoechst Blue and Hoechst Red filters. Side population cells that were Hoechst negative (circled) were compared in the two experimental conditions. The figure represents five different experiments, with MDA-MB-231 and T47D.
Experiments were then performed to determine if drug resistance genes played any role in the differentiation of BCC subsets. […] Oct4^hi cells were incubated in the presence or absence of verapamil, which inhibits multi-drug resistance transporters, and then dye exclusion was tested in four different experiments. Oct4^hi, Oct4^med and Oct4^− cells were tested. […] Only few Oct4^med (FIG. 8) and Oct4^− cells (FIG. 9) excluded the dye.
Side population analysis of the pEGFP1-Oct4 stable transfectants was performed using the LSR II (BD Biosciences). […] Optimal titrations and conditions were determined to be 5 μg/ml Hoechst 33342 (90 min incubation at 37° C.) and 400 μM verapamil (10 min pre-incubation). […] The cells between the two extremes were also analyzed (Oct4^med).

[4] = system: unsorted BCCs; experiment: Carboplatin response of subcutaneous tumors from unsorted BCCs; assay type: in vivo, nude BALB/c mice; conditions: 50 mg/kg i.p. twice at 3-day intervals
Protocol: (§1) Both triple-negative MDA-MB-231 and triple-positive T47D are expected to respond to carboplatin treatment, a drug which acts through a mechanism independent of hormone receptor status. Thus, the responsiveness to carboplatin was investigated in Oct4^hi cells from both cells lines. Tumors were injected into the dorsal flanks of mice as before. When the tumors were 0.5 cm^3 the mice were injected with carboplatin intra-peritoneally (i.p.).
(§2) Serial passage of different BCC subsets was performed by injecting BCCs in dorsal flanks of mice. The cells were resuspended in PBS and then mixed with matrigel at 1:1 ratio in 0.2 mL total volume. The cells were injected at different numbers, but in a constant volume to study dose effects on the time for tumor growth. Parallel analyses were performed with unsorted BCCs. Tumors were monitored daily for 30 days and measured in two dimensions with a caliper and volume was calculated using the following: formula V=πr^2h, where r=radius and h=height. Subsequent passages occurred by sorting the same cell subset (top 5% highest GFP) and then repeating the injection as above.
(§3) Carboplatin responses to tumor growth were assessed by subcutaneous injection of 200 Oct4^hi BCCs in matrigel in the dorsal flank. For unsorted BCCs, 10^6 cells were injected. […] Tumor sizes were recorded every 2 days with a caliper, as described for serial passage.

[5] = system: Oct4^hi MDA-MB-231; experiment: Carboplatin resistance of Oct4^hi BCCs in bone marrow (femur endosteum); assay type: in vivo, mice; conditions: 10^3 Oct4^hi MDA-MB-231 i.v.; carboplatin 50 mg/kg i.p. at 3-day intervals; femurs examined one week after second injection
Protocol: It was then determined if Oct4^hi BCCs, at sites of distant metastasis, such as bone marrow, could resist carboplatin treatment. Bone marrow was selected for study because it is well-established that BCCs can attain dormancy in this organ, close to the endosteum (Lim, P. K. et al. 2011. Cancer Res. 71:1550-1560; Rao, G. et al. 2004. Cancer Res. 64:2874-2881). Mice were injected intravenously with 10^3 Oct4^hi MDA-MB-231. After 1 day, carboplatin was injected i.p. at 3-day intervals. One week after the second injection, femurs were decalcified, processed, and examined for GFP^+ cells. […] Similar cells were not detected in the cellular regions of the marrow, which were flushed from femurs prior to the analyses of the endosteal regions. Mice were injected intravenously with 10^3 BCCs, stably transfected with pEGFP1-Oct3/4. After 24 hours, mice were injected i.p. with carboplatin (50 mg/kg), followed by a second dose after 3 days. One week after the final injection of carboplatin, mice were euthanized, and the femurs were removed. Femurs were rinsed and the cells flushed using a 27 gauge needle attached to a syringe with PBS to remove the cells within the central region of the cavity. After this, the femurs were fixed overnight in 4% formaldehyde at 4° C. […] Slides were examined with an EVOS fl fluorescence imager.

[6] = system: Oct4^hi BCCs; experiment: Carboplatin response of subcutaneous tumors from Oct4^hi BCCs; assay type: in vivo, nude BALB/c mice; conditions: 50 mg/kg i.p. twice at 3-day intervals, same tumor size as unsorted BCCs
Protocol: as §1, §2, §3

Compound: COc1cc2nc(N3CCCN(C)CC3)nc(NC3CCN(Cc4ccccc4)CC3)c2cc1OC [BIX01294, 2-(Hexahydro-4-methyl-1H-1,4-diazepin-1-yl)-6,7-dimethoxy-N-[1-(phenylmethyl)-4-piperidinyl]4-quinazolinamine]
- Oct4^− BCCs reverted to high GFP expression [1]: 92.5%±4.4%

Compound: CCCCCCCCO [1-octanol]
- CFDA-SE dye transfer into stroma ([2]; CFDA-SE-labeled Oct4^hi BCCs): blunted
- intensity of Cx43 immunofluorescence ([2]; co-cultures of Oct4^hi BCCs and BM stroma): reduced

Compound: COc1ccc(CCN(C)CCCC(C#N)(c2ccc(OC)c(OC)c2)C(C)C)cc1OC (centres unmarked) [verapamil]
- difference in Hoechst dye retention with verapamil [3]: 3 fold

Compound: N.N.O=C([O-])C1(C(=O)[O-])CCC1.[Pt+2] [carboplatin]
- tumors eight days after treatment with carboplatin ([4]; mice injected with unsorted BCCs): tumors were undetectable
- tumor change after the second injection of carboplatin ([4]; tumors 0.5 cm^3 at start, vs Oct4^hi and untreated unsorted BCC): significant (p<0.05) reduction
- GFP^+ BCCs in femur after carboplatin [5]: drug resistance in GFP^+ BCCs close to the endosteum of bone marrow
- tumors after carboplatin treatment [6]: retained palpable tumors
